Data reported in patent US20240398784A1, “C-LINKED ISOQUINOLINE AMIDES AS LRRK2 INHIBITORS, PHARMACEUTICAL COMPOSITIONS, AND USES THEREOF” (Merck Sharp & Dohme LLC, priority 2021, published 2024).

target: LRRK2 G2019S (Homo sapiens, UniProt Q5S007, G2019S); assay: LRRK2 G2019S Km ATP LanthaScreen assay; type: biochemical; details: read-out: LRRK2 pIC50 (converted)
Sequence (Q5S007 whole entry G2019S): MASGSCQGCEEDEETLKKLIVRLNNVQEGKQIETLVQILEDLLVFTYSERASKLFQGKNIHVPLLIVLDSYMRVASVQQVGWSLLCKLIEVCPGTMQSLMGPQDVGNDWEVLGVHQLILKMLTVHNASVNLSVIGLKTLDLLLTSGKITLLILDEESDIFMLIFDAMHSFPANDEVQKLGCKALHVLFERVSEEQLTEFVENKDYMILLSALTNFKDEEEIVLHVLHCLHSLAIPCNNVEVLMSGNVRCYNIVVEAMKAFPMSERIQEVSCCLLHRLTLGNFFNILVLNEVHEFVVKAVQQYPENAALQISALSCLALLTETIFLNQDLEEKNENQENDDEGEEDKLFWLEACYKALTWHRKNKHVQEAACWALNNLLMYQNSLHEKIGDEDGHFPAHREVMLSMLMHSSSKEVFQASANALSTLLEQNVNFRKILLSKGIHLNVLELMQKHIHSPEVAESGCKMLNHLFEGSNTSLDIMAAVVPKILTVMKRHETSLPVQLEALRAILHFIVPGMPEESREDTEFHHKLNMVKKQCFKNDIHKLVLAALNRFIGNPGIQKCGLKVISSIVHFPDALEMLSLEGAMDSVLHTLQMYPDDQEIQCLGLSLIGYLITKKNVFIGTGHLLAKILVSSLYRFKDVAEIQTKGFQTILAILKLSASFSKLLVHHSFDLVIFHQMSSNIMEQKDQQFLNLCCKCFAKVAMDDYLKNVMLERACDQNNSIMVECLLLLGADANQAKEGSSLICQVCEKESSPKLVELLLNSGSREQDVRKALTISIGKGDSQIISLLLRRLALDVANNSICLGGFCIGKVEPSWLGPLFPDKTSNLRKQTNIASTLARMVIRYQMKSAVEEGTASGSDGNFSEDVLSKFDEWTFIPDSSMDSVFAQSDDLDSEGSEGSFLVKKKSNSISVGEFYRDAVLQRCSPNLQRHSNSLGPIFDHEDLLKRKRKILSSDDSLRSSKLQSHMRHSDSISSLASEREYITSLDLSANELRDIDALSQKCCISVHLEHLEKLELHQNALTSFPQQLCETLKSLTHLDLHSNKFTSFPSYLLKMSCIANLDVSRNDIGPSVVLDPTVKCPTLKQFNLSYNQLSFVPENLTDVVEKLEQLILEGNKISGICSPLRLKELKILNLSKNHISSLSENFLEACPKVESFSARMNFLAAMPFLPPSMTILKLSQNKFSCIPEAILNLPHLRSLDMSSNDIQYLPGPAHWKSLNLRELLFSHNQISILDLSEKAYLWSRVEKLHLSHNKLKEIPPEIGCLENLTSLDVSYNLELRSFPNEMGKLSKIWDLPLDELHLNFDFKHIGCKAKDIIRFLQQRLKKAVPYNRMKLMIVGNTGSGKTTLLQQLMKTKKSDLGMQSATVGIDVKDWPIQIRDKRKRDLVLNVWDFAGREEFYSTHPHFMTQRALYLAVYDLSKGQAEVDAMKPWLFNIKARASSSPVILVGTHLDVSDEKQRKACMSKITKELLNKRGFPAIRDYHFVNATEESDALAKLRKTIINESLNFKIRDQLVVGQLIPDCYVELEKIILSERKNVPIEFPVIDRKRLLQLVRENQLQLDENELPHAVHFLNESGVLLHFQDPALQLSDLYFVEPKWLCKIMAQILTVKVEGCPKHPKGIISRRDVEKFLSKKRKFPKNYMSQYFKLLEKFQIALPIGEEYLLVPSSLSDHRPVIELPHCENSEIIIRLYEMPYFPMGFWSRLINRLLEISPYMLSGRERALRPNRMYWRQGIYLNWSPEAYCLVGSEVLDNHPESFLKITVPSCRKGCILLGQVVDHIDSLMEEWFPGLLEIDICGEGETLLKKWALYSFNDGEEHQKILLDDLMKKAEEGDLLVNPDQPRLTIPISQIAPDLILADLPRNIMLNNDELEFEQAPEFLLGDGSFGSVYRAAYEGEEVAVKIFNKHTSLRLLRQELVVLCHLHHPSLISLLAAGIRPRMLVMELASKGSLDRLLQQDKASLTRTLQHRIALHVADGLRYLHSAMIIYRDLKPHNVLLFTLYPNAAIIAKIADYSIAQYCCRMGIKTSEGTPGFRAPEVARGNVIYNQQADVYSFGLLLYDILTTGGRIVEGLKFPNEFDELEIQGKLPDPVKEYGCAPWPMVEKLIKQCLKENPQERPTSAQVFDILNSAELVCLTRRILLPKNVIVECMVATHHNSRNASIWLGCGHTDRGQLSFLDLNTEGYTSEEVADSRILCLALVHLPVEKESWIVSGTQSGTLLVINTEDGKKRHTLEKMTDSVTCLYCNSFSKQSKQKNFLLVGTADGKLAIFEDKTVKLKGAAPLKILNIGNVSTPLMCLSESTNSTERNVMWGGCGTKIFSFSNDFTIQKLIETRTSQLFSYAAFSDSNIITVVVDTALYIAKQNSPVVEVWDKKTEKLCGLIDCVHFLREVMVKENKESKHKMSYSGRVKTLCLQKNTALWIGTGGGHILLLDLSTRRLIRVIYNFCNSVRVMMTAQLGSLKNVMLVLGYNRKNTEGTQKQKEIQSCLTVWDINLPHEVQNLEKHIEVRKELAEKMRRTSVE

SMILES | IC50 [nM]
N#CC1(c2ccc3cnc(NC(=O)C4CCC4)cc3c2)CC12CC2 (single isomer, unassigned) [Ex-1.15, (R or S)-N-(6-(1-cyanospiro[2.2]pentan-1-yl)isoquinolin-3-yl)cyclobutanecarboxamide] | 3.24
Cn1ncc(C2CC2C(=O)Nc2cc3cc(C4(C#N)CC45CC5)ccc3cn2)c1C(F)(F)F (centres unmarked) [Ex-2.47] | 457
CC1CC1(C#N)c1ccc2cnc(NC(=O)C3CC3)cc2c1 (single isomer, unassigned) [Ex-18.8, (R or S)-N-(6-(1-cyano-2-methylcyclopropyl)isoquinolin-3-yl)cyclopropanecarboxamide] | 5.37
CC1(C)CC(C(=O)Nc2cc3cc(C4(C#N)CC45CC5)ccc3cn2)CCO1 (centres unmarked) [Ex-2.57] | 2.14
CCC1C(C(=O)Nc2cc3cc(C4CC(C#N)C4)c(Cl)cc3cn2)C1c1cnn(C)c1 (centres unmarked) [Ex-9.17, N-(7-chloro-6-(3-cyanocyclobutyl)isoquinolin-3-yl)-2-ethyl-3-(1-methyl-1H-pyrazol-4-yl)cyclopropane-1-carboxamide] | 33.1
O=C(Nc1cc2cc(C3CCN(C4COC4)CC3)c(Cl)cc2cn1)C1CC(OC(F)F)C1 (single isomer, unassigned) [Ex-2.3] | 5.62
N#CC1(c2ccc3cnc(NC(=O)C4CC4)cc3c2)CCC1 [Ex-17.2] | 14.5
CCC1C(C(=O)Nc2cc3cc(C(C)CC#N)c(Cl)cc3cn2)C1c1cnn(C)c1 (single isomer, unassigned) [Ex-9.16, N-(7-chloro-6-(1-cyanopropan-2-yl)isoquinolin-3-yl)-2-ethyl-3-(1-methyl-1H-pyrazol-4-yl)cyclopropane-1-carboxamide] | 1.82
CN1CCO[C@@H](C(=O)Nc2cc3cc(C4(C#N)CC45CC5)ccc3cn2)C1 (single isomer, unassigned) [Ex-1.31, (2R)-N-(6-((R or S)-1-cyanospiro[2.2]pentan-1-yl)isoquinolin-3-yl)-4-methylmorpholine-2-carboxamide] | 11.7
O=C(Nc1cc2cc(C3CCC(N4CC(F)(F)C4)CC3)c(Cl)cc2cn1)C1CC1c1ccccn1 (single isomer, unassigned) [Ex-5.4, N-(7-chloro-6-(4-(3,3-difluoroazetidin-1-yl)cyclohexyl)isoquinolin-3-yl)-2-(pyridin-2-yl)cyclopropane-1-carboxamide] | 47.9
CC1(C)CC(C(=O)Nc2cc3cc(C4CCC(N5CCC(F)C5)CC4)c(Cl)cc3cn2)CCO1 (single isomer, unassigned) [Ex-5.15, N-(7-chloro-6-(4-(3-fluoropyrrolidin-1-yl)cyclohexyl)isoquinolin-3-yl)-2,2-dimethyltetrahydro-2H-pyran-4-carboxamid] | 1.29

Second part, the molecule after the results:

IC50 [nM] | SMILES
0.692 | CC1(N2CCC(c3cc4cc(NC(=O)C5CC5c5cncnc5)ncc4cc3Cl)CC2)COCC1O (single isomer, unassigned) [Ex-4.35, N-(7-chloro-6-(1-(4-hydroxy-3-methyltetrahydrofuran-3-yl)piperidin-4-yl)isoquinolin-3-yl)-2-(pyrimidin-5-yl)cyclopropane-1-carboxamide]
0.759 | Cc1cc2cnc(NC(=O)C3C4CCOCC43)cc2cc1C1CCN(C2(C)COCC2O)CC1 (centres unmarked) [Ex-2.51]
0.55 | Cn1cc(C2CC2C(=O)Nc2cc3cc(C4CCN(C5(C)COCC5O)CC4)c(Cl)cc3cn2)cn1 (centres unmarked) [Ex-2.36]
24.5 | CC(C)(O)C1CC1C(=O)Nc1cc2cc(C3CCN(C4(C)COCC4F)CC3)c(Cl)cc2cn1 (single isomer, unassigned) [Ex-6.29, N-(7-chloro-6-(1-(4-fluoro-3-methyltetrahydrofuran-3-yl)piperidin-4-yl)isoquinolin-3-yl)-2-(2-hydroxypropan-2-yl)cyclopropane-1-carboxamide]
2.82 | O=C(Nc1cc2cc(C3CCN(C4COCC4O)CC3)c(Cl)cc2cn1)C1CC12CCOCC2 (single isomer, unassigned) [Ex-4.2, (R or S)-N-(7-chloro-6-(1-((3R,4R or 3R, 4R)-4-hydroxytetrahydrofuran-3-yl)piperidin-4-yl)isoquinolin-3-yl)-6-oxaspiro[2.5]octane-1-carboxamide]
0.776 | Cn1cc(C(=O)Nc2cc3cc(C4CCN([C@]5(C)COC[C@@H]5O)CC4)c(Cl)cc3cn2)cn1 (single isomer, unassigned) [Ex-12.6, N-(7-chloro-6-(1-(4-hydroxy-3-methyltetrahydrofuran-3-yl)piperidin-4-yl)isoquinolin-3-yl)-1-methyl-1H-pyrazole-4-carboxamide]
2.57 | CCOC1CC2(C1)CC2C(=O)Nc1cc2cc(C3CCN(C4(C)COCC4O)CC3)c(Cl)cc2cn1 (single isomer, unassigned) [Ex-4.32, N-(7-chloro-6-(1-(4-hydroxy-3-methyltetrahydrofuran-3-yl)piperidin-4-yl)isoquinolin-3-yl)-5-ethoxyspiro[2.3]hexane-1-carboxamide]
2.88 | O=C(Nc1cc2cc(C3CCN(C4COC4)CC3)c(Cl)cc2cn1)C1CC12CCOCC2 (racemic) [Ex-1.9, Rac-N-(7-chloro-6-(1-(oxetan-3-yl)piperidin-4-yl)isoquinolin-3-yl)-6-oxaspiro[2.5]octane-1-carboxamide]
0.871 | CC1(C)CC(C(=O)Nc2cc3cc(C4CCN(C5(C)COCC5F)CC4)c(Cl)cc3cn2)CCO1 (single isomer, unassigned) [Ex-6.38, N-(7-chloro-6-(1-(4-fluoro-3-methyltetrahydrofuran-3-yl)piperidin-4-yl)isoquinolin-3-yl)-2,2-dimethyltetrahydro-2H-pyran-4-carboxamide]
0.661 | CC(C(=O)Nc1cc2cc(C3CCN(C4(C)COCC4O)CC3)c(Cl)cc2cn1)c1cnn(C)c1 (centres unmarked) [Ex-2.107]
0.0813 | Cc1cc2cnc(NC(=O)C3CC34CCOCC4)cc2cc1C1CCN(C2(C)COCC2O)CC1 (single isomer, unassigned) [Ex-15.16, N-(6-(1-(4-hydroxy-3-methyltetrahydrofuran-3-yl)piperidin-4-yl)-7-methylisoquinolin-3-yl)-6-oxaspiro[2.5]octane-1-carboxamide]
0.151 | CC(C)(O)C1CC1C(=O)Nc1cc2cc(C3CCN(C4(C)COCC4O)CC3)c(Cl)cc2cn1 (single isomer, unassigned) [Ex-4.9, Trans-N-(7-chloro-6-(1-(4-hydroxy-3-methyltetrahydrofuran-3-yl)piperidin-4-yl)isoquinolin-3-yl)-2-(2-hydroxypropan-2-yl)cyclopropane-1-carboxamide]
0.251 | Cn1cc(CC(=O)Nc2cc3cc(C4CCN(C5(C)COCC5O)CC4)c(Cl)cc3cn2)c(Cl)n1 (centres unmarked) [Ex-3.12]
1.17 | CC1(N2CCC(c3cc4cc(NC(=O)C5CC56CCOC6)ncc4cc3Cl)CC2)COCC1F (single isomer, unassigned) [Ex-6.6, (R or S)-N-(7-chloro-6-(1-((3R,4R or 3S,4S)-4-fluoro-3-methyltetrahydrofuran-3-yl)piperidin-4-yl)isoquinolin-3-yl)-5-oxaspiro [2.4] heptane-1-carboxamide]
5.5 | CC1CC(C(=O)Nc2cc3cc(C4CCN(C5(C)COC5)CC4)c(Cl)cc3cn2)C1 (racemic) [Ex-1.16, Rac-N-(7-chloro-6-(1-(3-methyloxetan-3-yl)piperidin-4-yl)isoquinolin-3-yl)-3-methylcyclobutane-1-carboxamide]
